Laboratory results reported in US20230257396A1, “MACROCYCLES AND THEIR USE” (BLOSSOMHILL THERAPEUTICS, INC., priority 2020, published 2023).
Residue numbers refer to the chain shown, from its start.

How the values were obtained:
Test in all cases: KINOMEscan kinase binding assay (Eurofins/DiscoveRx), % Ctrl
kinases [1] = biological target: T1, kinases (Homo sapiens, UniProt P10721, L576P)
T1 construct: purchased Eurofins/DiscoveRx; host or cells: E. coli BL21-derived host (T7 phage display) for most kinases; HEK-293 for the rest
T1 sequence (P10721 26-976 L576P): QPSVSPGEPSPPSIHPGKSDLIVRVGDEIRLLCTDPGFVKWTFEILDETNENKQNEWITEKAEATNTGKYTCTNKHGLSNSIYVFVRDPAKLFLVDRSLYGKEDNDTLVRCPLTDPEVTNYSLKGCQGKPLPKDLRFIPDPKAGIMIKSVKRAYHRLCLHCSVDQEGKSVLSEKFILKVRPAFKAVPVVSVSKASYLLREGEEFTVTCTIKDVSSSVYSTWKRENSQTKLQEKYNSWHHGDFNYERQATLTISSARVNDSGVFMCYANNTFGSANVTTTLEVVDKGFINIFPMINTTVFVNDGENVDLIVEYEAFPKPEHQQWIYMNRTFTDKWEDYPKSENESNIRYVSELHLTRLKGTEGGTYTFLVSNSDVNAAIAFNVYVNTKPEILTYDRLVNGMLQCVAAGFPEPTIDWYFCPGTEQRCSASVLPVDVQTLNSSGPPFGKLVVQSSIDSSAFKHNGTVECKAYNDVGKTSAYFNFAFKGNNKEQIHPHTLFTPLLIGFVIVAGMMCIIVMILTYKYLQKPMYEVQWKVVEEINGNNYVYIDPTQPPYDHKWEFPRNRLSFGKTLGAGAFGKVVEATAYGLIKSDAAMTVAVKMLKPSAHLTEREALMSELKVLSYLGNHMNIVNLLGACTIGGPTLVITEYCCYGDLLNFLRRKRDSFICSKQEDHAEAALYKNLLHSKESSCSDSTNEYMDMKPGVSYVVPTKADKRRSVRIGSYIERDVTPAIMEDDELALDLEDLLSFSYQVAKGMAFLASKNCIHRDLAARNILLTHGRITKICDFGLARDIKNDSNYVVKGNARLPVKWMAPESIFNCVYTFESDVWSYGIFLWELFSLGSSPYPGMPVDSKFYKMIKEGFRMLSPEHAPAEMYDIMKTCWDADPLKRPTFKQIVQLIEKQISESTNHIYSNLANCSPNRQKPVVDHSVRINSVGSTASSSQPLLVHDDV
How it was run: (§1)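 Competition binding, 1 h RT: phage-tagged or HEK-293-expressed DNA-tagged kinase + immobilized ligand + compound. Eluate kinase by qPCR. % Ctrl = (test − positive ctrl)/(negative ctrl − positive ctrl) × 100; lower means stronger binding.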

kinases [2] = biological target: T2, kinases (Homo sapiens, UniProt P07949, M918T)
T2 construct: purchased Eurofins/DiscoveRx; host or cells: E. coli BL21-derived host (T7 phage display) for most kinases; HEK-293 for the rest
T2 sequence (P07949 29-1114 M918T): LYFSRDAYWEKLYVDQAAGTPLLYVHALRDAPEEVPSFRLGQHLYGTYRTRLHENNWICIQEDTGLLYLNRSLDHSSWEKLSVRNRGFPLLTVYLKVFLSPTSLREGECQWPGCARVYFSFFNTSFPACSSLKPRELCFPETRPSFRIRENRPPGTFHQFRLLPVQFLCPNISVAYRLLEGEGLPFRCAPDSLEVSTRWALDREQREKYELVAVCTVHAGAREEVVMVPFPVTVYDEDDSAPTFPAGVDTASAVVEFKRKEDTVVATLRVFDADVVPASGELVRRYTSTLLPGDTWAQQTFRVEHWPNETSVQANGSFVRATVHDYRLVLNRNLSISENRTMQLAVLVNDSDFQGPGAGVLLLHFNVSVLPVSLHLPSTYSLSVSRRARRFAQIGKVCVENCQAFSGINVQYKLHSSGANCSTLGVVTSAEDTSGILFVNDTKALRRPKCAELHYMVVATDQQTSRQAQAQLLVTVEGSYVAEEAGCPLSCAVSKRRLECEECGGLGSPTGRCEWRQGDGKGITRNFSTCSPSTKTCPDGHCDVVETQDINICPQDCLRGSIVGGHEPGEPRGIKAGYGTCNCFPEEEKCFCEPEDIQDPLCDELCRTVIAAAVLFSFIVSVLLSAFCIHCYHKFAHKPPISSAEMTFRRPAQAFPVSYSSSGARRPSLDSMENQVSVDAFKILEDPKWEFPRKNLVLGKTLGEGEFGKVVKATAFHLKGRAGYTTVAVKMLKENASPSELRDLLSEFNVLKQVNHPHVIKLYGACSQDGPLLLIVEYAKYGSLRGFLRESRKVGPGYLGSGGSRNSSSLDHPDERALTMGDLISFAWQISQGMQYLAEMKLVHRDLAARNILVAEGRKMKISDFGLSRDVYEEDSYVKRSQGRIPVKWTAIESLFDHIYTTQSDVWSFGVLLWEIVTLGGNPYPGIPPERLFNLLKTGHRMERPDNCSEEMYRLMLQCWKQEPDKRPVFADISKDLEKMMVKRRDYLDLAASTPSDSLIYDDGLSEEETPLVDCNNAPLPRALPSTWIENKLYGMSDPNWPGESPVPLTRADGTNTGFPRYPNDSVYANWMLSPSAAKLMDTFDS
How it was run: as §1

kinases [3] = biological target: T3, kinases (Homo sapiens, UniProt P36888)
T3 construct: purchased Eurofins/DiscoveRx; host or cells: E. coli BL21-derived host (T7 phage display) for most kinases; HEK-293 for the rest
T3 sequence (P36888 27-993): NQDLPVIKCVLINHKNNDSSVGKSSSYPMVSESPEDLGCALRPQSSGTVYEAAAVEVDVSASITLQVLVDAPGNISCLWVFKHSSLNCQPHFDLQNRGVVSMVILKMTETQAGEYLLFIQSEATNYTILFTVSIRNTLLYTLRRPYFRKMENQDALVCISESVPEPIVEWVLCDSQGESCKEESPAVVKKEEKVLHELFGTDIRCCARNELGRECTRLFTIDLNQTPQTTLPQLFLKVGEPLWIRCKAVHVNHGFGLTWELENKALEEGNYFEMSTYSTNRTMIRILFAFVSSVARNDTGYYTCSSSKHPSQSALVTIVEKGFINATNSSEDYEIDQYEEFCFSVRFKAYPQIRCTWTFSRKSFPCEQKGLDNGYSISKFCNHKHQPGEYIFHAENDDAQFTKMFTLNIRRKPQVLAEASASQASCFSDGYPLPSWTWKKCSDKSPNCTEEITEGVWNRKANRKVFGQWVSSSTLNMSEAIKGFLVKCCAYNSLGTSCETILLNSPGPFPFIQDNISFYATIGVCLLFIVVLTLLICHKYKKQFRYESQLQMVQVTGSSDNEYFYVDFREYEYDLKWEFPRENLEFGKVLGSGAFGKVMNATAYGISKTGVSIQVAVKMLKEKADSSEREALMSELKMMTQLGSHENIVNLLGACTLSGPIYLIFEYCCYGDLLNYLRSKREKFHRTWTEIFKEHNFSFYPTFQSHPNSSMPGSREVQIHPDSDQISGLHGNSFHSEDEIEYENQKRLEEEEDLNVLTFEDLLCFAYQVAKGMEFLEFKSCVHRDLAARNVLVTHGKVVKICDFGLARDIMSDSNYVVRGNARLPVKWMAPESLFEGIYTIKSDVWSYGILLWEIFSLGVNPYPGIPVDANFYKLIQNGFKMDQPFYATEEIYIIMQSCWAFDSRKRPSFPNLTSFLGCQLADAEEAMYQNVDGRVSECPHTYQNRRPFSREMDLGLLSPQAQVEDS
How it was run: as §1

kinases [4] = biological target: T4, kinases (Homo sapiens, UniProt P10721)
T4 construct: purchased Eurofins/DiscoveRx; host or cells: E. coli BL21-derived host (T7 phage display) for most kinases; HEK-293 for the rest
T4 sequence (P10721 26-976): as the sequence (P10721 26-976 L576P) above, with P551L counted along it
How it was run: as §1

kinases [5] = biological target: T5, kinases (Homo sapiens, UniProt P16234)
T5 construct: purchased Eurofins/DiscoveRx; host or cells: E. coli BL21-derived host (T7 phage display) for most kinases; HEK-293 for the rest
T5 sequence (P16234 24-1089): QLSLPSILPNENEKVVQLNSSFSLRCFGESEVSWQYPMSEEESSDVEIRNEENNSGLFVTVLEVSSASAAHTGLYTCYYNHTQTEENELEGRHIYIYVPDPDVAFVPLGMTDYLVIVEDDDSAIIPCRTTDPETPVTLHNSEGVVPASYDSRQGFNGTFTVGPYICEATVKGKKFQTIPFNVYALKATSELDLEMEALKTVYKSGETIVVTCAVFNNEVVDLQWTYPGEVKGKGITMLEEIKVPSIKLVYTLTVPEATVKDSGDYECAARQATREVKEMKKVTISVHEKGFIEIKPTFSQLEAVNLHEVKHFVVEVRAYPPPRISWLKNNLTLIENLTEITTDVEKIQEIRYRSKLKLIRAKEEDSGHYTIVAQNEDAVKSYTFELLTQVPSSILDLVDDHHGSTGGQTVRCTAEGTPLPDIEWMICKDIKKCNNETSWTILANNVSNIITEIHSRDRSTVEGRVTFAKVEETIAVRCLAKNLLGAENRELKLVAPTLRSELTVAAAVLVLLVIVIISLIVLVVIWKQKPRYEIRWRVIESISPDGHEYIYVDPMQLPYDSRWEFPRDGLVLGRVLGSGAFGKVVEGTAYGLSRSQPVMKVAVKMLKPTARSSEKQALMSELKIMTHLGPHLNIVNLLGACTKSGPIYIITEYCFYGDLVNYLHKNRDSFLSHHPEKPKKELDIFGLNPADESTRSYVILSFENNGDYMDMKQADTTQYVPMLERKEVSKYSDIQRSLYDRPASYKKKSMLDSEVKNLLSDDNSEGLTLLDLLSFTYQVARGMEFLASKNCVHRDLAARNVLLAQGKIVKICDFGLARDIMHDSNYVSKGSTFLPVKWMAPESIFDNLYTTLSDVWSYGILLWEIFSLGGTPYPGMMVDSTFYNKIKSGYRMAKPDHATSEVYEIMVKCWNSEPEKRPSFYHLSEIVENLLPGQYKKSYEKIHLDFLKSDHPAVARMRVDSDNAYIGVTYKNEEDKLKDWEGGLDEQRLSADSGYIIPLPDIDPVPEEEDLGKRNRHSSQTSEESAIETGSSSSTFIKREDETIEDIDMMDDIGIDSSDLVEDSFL
How it was run: as §1

kinases [6] = biological target: T6, kinases (Homo sapiens, UniProt P36888, N841I)
T6 construct: purchased Eurofins/DiscoveRx; host or cells: E. coli BL21-derived host (T7 phage display) for most kinases; HEK-293 for the rest
T6 sequence (P36888 27-993 N841I): T3 sequence (P36888 27-993) with N815I
How it was run: as §1

[7] = target FLT3-autoinhibited; 1 μM
[8] = 1 μM; target FLT3-autoinhibited

Row | Compound | % Ctrl, KIT(L576P) (kinases [1]; target KIT(L576P); 1 μM) [% Ctrl] | % Ctrl, RET(M918T) (kinases [2]; target RET(M918T); 1 μM) [% Ctrl] | % Ctrl, FLT3-autoinhibited (kinases [3]; [7]) [% Ctrl] | % Ctrl, FLT3 (kinases [3]; target FLT3; 1 μM) [% Ctrl] | % Ctrl, KIT-autoinhibited (kinases [4]; target KIT-autoinhibited; 1 μM) [% Ctrl] | % Ctrl, KIT (kinases [4]; target KIT; 1 μM) [% Ctrl] | % Ctrl, PDGFRA (kinases [5]; target PDGFRA; 1 μM) [% Ctrl] | % Ctrl, FLT3(N841I) (kinases [6]; target FLT3(N841I); 1 μM) [% Ctrl] | % Ctrl, KIT(L576P) (kinases [1]; 1 μM; target KIT(L576P)) [% Ctrl] | % Ctrl, RET(M918T) (kinases [2]; 1 μM; target RET(M918T)) [% Ctrl] | % Ctrl, FLT3 (kinases [3]; 1 μM; target FLT3) [% Ctrl] | % Ctrl, FLT3-autoinhibited (kinases [3]; [8]) [% Ctrl] | % Ctrl, KIT (kinases [4]; 1 μM; target KIT) [% Ctrl] | % Ctrl, KIT-autoinhibited (kinases [4]; 1 μM; target KIT-autoinhibited) [% Ctrl] | % Ctrl, PDGFRA (kinases [5]; 1 μM; target PDGFRA) [% Ctrl] | % Ctrl, FLT3(N841I) (kinases [6]; 1 μM; target FLT3(N841I)) [% Ctrl]
1 | CN1CCOCCOc2cc3c(cc2Cl)NC(=O)/C3=C\c2[nH]ccc2C1=O [Ex. 143, [16a(17)Z]-19-chloro-2,5-dimethyl-6,7,9,10-tetrahydro-1H-12,14-(ethanediylidene)dipyrrolo[3,2-i:3′,4′-l][1,4,7]oxathiazacyclopentadecine-4,16(5H,15H)-dione] | 0 | 0.7 | 62 | 15 | 40 | 9.9 | 41 | 5.5 |  |  |  |  |  |  |  | 
2 | Cc1cc2c([nH]1)/C=C1\C(=O)Nc3ccc(cc31)-c1c(C)nn(C)c1COCCN(C)C2=O [Ex. 146, [3a(4)Z]-6,9,14,16-tetramethyl-10,11,13,14-tetrahydro-2H-1,17-(ethanediylidene)pyrazolo[4,3-m]dipyrrolo[3,2-f:3′,4′-i][1,4]oxazacyclopentadecine-3,8(5H,9H)-dione] | 90 | 27 | 100 | 24 | 80 | 96 | 100 | 0 |  |  |  |  |  |  |  | 
3 | Cc1nn(C)c2c1-c1ccc3c(c1)/C(=C/c1[nH]ccc1C(=O)N(C)CCCO2)C(=O)N3 [Ex. 150, [3a(4)Z]-9,14,16-trimethyl-10,11,13,14-tetrahydro-2H-1,17-(ethanediylidene)pyrazolo[4,3-m]dipyrrolo[3,2-f:3′,4′-i][1,4]oxazacyclopentadecine-3,8(5H,9H)-dione] | 94 | 90 | 82 | 71 | 100 | 97 | 92 | 19 |  |  |  |  |  |  |  | 

Further lines, results first:

Row | % Ctrl, KIT(L576P) (kinases [1]; target KIT(L576P); 1 μM) [% Ctrl] | % Ctrl, RET(M918T) (kinases [2]; target RET(M918T); 1 μM) [% Ctrl] | % Ctrl, FLT3-autoinhibited (kinases [3]; [7]) [% Ctrl] | % Ctrl, FLT3 (kinases [3]; target FLT3; 1 μM) [% Ctrl] | % Ctrl, KIT-autoinhibited (kinases [4]; target KIT-autoinhibited; 1 μM) [% Ctrl] | % Ctrl, KIT (kinases [4]; target KIT; 1 μM) [% Ctrl] | % Ctrl, PDGFRA (kinases [5]; target PDGFRA; 1 μM) [% Ctrl] | % Ctrl, FLT3(N841I) (kinases [6]; target FLT3(N841I); 1 μM) [% Ctrl] | % Ctrl, KIT(L576P) (kinases [1]; 1 μM; target KIT(L576P)) [% Ctrl] | % Ctrl, RET(M918T) (kinases [2]; 1 μM; target RET(M918T)) [% Ctrl] | % Ctrl, FLT3 (kinases [3]; 1 μM; target FLT3) [% Ctrl] | % Ctrl, FLT3-autoinhibited (kinases [3]; [8]) [% Ctrl] | % Ctrl, KIT (kinases [4]; 1 μM; target KIT) [% Ctrl] | % Ctrl, KIT-autoinhibited (kinases [4]; 1 μM; target KIT-autoinhibited) [% Ctrl] | % Ctrl, PDGFRA (kinases [5]; 1 μM; target PDGFRA) [% Ctrl] | % Ctrl, FLT3(N841I) (kinases [6]; 1 μM; target FLT3(N841I)) [% Ctrl] | Compound
4 | 0.1 | 1 | 26 | 1.6 | 14 | 0.8 | 9.1 | 0 |  |  |  |  |  |  |  |  | CN1CCSCCOc2cc3c(cc2Cl)NC(=O)/C3=C\c2[nH]ccc2C1=O [Ex. 153]
5 |  |  |  |  |  |  |  |  | 100 | 92 | 100 | 100 | 98 | 100 | 100 | 39 | Cc1cc2c([nH]1)/C=C1\C(=O)Nc3ccc(cc31)-c1c(noc1C(C)C)COCCN(C)C2=O [Ex. 161, [3a(4)Z]-9-methyl-16-(propan-2-yl)-10,11-dihydro-2H,13H-1,17-(ethanediylidene)[1,2]oxazolo[4,3-m]dipyrrolo[3,2-f:3′,4′-i][1,4]oxazacyclopentadecine-3,8(5H,9H)-dione]
6 |  |  |  |  |  |  |  |  | 0.9 | 0 | 2.5 | 63 | 18 | 81 | 30 | 0 | CN1CCOc2cc3c(cc2Cl)NC(=O)/C3=C\c2[nH]ccc2C(=O)N(C)CC1 [Ex. 164, [16a(17)Z]-19-chloro-2,5,8-trimethyl-5,6,7,8,9,10-hexahydro-12,14-(ethanediylidene)dipyrrolo[3,2-i:3′,4′-l][1,4,7]oxadiazacyclopentadecine-4,16(1H,15H)-dione]
